Source: ChEMBL document CHEMBL1152129, “Quantitative structure-activity relationship and complex network approach to monoamine oxidase A and B inhibitors” (J Med Chem, 2008)

What was measured:
[1] = biological target: T1, Amine oxidase [flavin-containing] A (Homo sapiens, UniProt P21397); assay: Inhibition of human recombinant MAOA by fluorimetric method
T1 sequence (P21397 whole entry): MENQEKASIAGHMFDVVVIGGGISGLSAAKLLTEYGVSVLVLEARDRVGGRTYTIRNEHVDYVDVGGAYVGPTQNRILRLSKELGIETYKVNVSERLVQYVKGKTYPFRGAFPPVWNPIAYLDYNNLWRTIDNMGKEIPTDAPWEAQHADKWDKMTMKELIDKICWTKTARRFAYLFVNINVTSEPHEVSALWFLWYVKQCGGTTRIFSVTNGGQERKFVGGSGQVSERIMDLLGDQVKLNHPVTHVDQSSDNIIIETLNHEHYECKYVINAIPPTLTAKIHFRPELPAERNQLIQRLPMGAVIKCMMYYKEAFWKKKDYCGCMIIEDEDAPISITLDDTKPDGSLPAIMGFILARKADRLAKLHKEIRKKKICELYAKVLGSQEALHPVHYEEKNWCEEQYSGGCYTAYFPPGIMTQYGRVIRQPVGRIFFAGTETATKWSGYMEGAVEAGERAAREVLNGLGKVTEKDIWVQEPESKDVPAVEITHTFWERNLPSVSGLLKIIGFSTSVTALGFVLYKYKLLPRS

[2] = biological target: T2, Amine oxidase [flavin-containing] B (Homo sapiens, UniProt P27338); assay: Inhibition of human recombinant MAOB at 100 uM by fluorimetric method
T2 sequence (P27338 whole entry): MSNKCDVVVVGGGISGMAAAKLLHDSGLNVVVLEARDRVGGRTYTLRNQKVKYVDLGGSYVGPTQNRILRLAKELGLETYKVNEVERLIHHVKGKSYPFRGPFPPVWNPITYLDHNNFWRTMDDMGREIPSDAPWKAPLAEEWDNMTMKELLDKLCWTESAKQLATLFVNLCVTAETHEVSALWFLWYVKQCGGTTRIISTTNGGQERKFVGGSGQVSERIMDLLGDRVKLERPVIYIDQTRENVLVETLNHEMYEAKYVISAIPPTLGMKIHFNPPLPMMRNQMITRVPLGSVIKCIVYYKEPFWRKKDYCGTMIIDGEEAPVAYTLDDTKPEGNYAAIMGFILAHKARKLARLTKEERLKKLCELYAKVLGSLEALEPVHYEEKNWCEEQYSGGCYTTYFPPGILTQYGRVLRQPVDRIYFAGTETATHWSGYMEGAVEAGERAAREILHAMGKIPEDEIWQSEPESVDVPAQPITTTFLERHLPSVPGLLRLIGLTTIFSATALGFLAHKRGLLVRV

Homo sapiens = organism: Homo sapiens; assay: Selectivity ratio of IC50 for human recombinant MAOA to IC50 for human recombinant MAOB
[3] = biological target: T1, Amine oxidase [flavin-containing] A; assay: Inhibition of human recombinant MAOA at 100 uM by fluorimetric method
[4] = biological target: T2, Amine oxidase [flavin-containing] B
Description: Inhibition of human recombinant MAOB by fluorimetric method

[5] = biological target: T1, Amine oxidase [flavin-containing] A; assay: Inhibition of human liver MAOA
[6] = biological target: T2, Amine oxidase [flavin-containing] B; assay: Inhibition of human recombinant MAOB at 1 mM by fluorimetric method; details: 1000 µM
[7] = biological target: T2, Amine oxidase [flavin-containing] B; assay: Inhibition of human liver MAOB

Row | Structure (SMILES) | IC50 [1] [µM] | Activity [2] | Ratio IC50 (Homo sapiens) | IC50 [4] [µM] | Activity [6] | also measured
1 | O=C1CCCCC1Oc1ccc2ccc(=O)oc2c1 (stereo not drawn) | 43 | Not Active | < 0.43 |  |  | 
2 | Cc1cc(=O)oc2c(C)c3oc4c(c3cc12)CCCC4 |  | Not Active |  |  |  | Activity [3]: Not Active
3 | Cc1c(O)ccc2c3c(c(=O)oc12)CCCC3 | 60.1 | Not Active | < 0.6 |  |  | 
4 | COc1cc(OCC(C)=O)cc2oc(=O)ccc12 |  |  | > 2.27 | 44.1 |  | Activity [3]: Not Active
5 | CN(C)/N=N/c1[nH]cnc1C(N)=O [DACARBAZINE] |  |  |  |  | Not Active | Activity [5]: Not Active
6 | COc1c(O)ccc2c3c(c(=O)oc12)CCCC3 |  |  | > 1.99 | 50.2 |  | Activity [3]: Not Active
7 | Cc1cc(=O)oc2c(C)c3oc4c(c3cc12)CCC4 | 32.8 |  | 0.45 | 73.2 |  | 
8 | C=C(Br)COc1ccc2c3c(c(=O)oc2c1C)CCCC3 | 0.695 |  | 2.94 | 0.236 |  | 
9 | O=CN(O)CC(=O)O [HADACIDIN] |  |  |  |  | Not Active | 
10 | COc1cc(O)cc2oc(=O)ccc12 |  | Not Active |  |  |  | Activity [3]: Not Active
11 | O=C(NCCN1CCOCC1)c1ccc(Cl)cc1 [MOCLOBEMIDE] |  |  |  |  | Not Active | 
12 | CCCOC1=C(N2CC2)C(=O)C(OCCC)=C(N2CC2)C1=O [INPROQUONE] |  |  |  |  | Not Active | 
13 | CN(Cc1cnc2nc(N)nc(N)c2n1)c1ccc(C(=O)N[C@@H](CCC(=O)O)C(=O)O)cc1 [METHOTREXATE] |  |  |  |  | Not Active | 
14 | COc1c(OCC(C)=O)ccc2c3c(c(=O)oc12)CCCC3 | 0.396 |  | 0.033 | 12.1 |  | 
15 | Cc1cc(=O)oc2cc(OC3CCCC3=O)ccc12 (stereo not drawn) | 0.0405 |  | 0.0073 | 5.57 |  | 
16 | CC(=O)COc1ccc2c3c(c(=O)oc2c1C)CCC3 | 0.235 |  | 1.42 | 0.165 |  | 
17 | Cc1cc(=O)oc2cc(O)ccc12 [HYMECROMONE] |  |  |  | 80.4 |  | Activity [3]: Not Active
18 | CCN(CC)CC(=O)Nc1c(C)cccc1C [LIDOCAINE] |  |  |  |  | Not Active | 
19 | COc1c(O)ccc2c3c(c(=O)oc12)CCC3 | 63.5 | Not Active | < 0.63 |  |  | 
20 | O=c1oc2cc(O)ccc2c2c1CCC2 | 48.2 | Not Active | < 0.48 |  |  | 
21 | N[C@@H](Cc1ccc(O)c(O)c1)C(=O)O [LEVODOPA] |  |  |  |  | Not Active | 
22 | C=C(Br)COc1ccc2c3c(c(=O)oc2c1C)CCC3 | 0.13 |  | 110 | 0.00118 |  | 
23 | N=c1nc2n(cc1F)[C@@H]1O[C@H](CO)[C@@H](O)[C@@H]1O2 [FLUROCITABINE] |  |  |  |  | Not Active | 
24 | CC(=O)Nc1c(I)c(C(=O)N[C@H]2C(O)O[C@H](CO)[C@@H](O)[C@@H]2O)c(I)c(N(C)C(C)=O)c1I (stereo partly drawn) [METRIZAMIDE] |  | Not Active |  |  |  | Activity [7]: Not Active
25 | C[C@@H]1O[C@@H](O[C@H]2C[C@](O)(C(=O)CO)Cc3c(O)c4c(c(O)c32)C(=O)c2ccccc2C4=O)C[C@H](N)[C@@H]1O [MEDORUBICIN] |  |  |  |  | Not Active | 
26 | O=c1ccc2cc3c4c(oc3cc2o1)CC4 | 57.9 | Not Active | < 0.58 |  |  | 
27 | CCCC(C)(COC(N)=O)COC(N)=O [MEPROBAMATE] |  | Not Active |  |  |  | Activity [7]: Not Active
28 | NS(=O)(=O)c1cc(Cl)c(Cl)c(S(N)(=O)=O)c1 [DICHLORPHENAMIDE] |  |  |  |  | Not Active | 
29 | C[C@H]1O[C@@H](O[C@H]2[C@@H](O)C[C@H](O[C@H]3[C@@H](O)C[C@H](O[C@H]4CC[C@@]5(C)[C@H](CC[C@@H]6[C@@H]5C[C@@H](O)[C@]5(C)[C@@H](C7=CC(=O)OC7)CC[C@]65O)C4)O[C@@H]3C)O[C@@H]2C)C[C@H](O)[C@@H]1O [DIGOXIN] |  |  |  |  |  | Activity [3]: Not Active; Activity [5]: Not Active; Activity [7]: Not Active
